{"source": "patent US20100173983A1", "about": "“METHOD FOR INDUCING AUTOPHAGY” (priority 2007, published 2010)", "key": {"[1]": {"system": "CP70 (cell line), R179, R182, R585 (primary ovarian cancer explants)", "experiment": "Cell viability, CellTiter 96 Aqueous One Solution Cell Proliferation Assay, ovarian cancer cells", "format": "cell-based, Human", "conditions": "concentrations up to 10 μg/ml, 24 hr exposure", "description": "FIG. 1. Comparative cytotoxicity of dehydroequol and Compound I as described herein (Cpd 1) against normal and ovarian cancer cells: CP70 (cell line), R179, R182, R585 (primary ovarian cancer explants) and OSE (normal ovarian surface epithelial cells). […] Both compounds were tested at concentrations up to 10 μg/ml and exposed to cells for 24 hr.\nHuman EOC cell lines A2780, CP70, and OSE were propagated in RPMI plus 10% fetal bovine serum (FBS) (Gemini Bio-Products, Woodland, Calif.) at 37° C. in a 5% CO2 atmosphere. Primary EOC cells (R179, R182, R585) were isolated from malignant ovarian ascites and cultured as previously described (Kamsteeg et al., 2003). Dehydroequol and Compound 1 (Cpd 1) were obtained from Novogen (Australia). All other reagents were purchased from Sigma Chemical (St. Louis, Mo.). The pan caspase inhibitor Z-VAD-FMK was obtained from R&D Systems (Minneapolis, Minn.).\n(§1) Cell viability was evaluated using the CellTiter 96 Aqueous One Solution Cell Proliferation Assay (Promega, Madison, Wis.) according to the manufacturer's instructions. The values from the treated cells were compared with the values generated from the untreated cells and reported as percent viability. Each experiment was performed in triplicate."}, "[2]": {"system": "caspase 3", "experiment": "Caspase-Glo 3/7 assay in R182 cells", "format": "cell-based, Human", "conditions": "R182 ovarian cancer explants; dose response and duration of exposure (5 μg/ml, 0-25 hr)", "description": "FIG. 2. Comparative induction of caspase 3 in R182 ovarian cancer explants by Cpd 1 and dehydroequol using either dose response (A) or duration of exposure (B). Caspase 3 activity was assessed using the Caspase-Glo 3/7 assays.\n(§2) For caspase activity assays, 10 μg of protein in 50 μL total volume was mixed with 50 μL of equilibrated Caspase-Glo 3/7, 8, or 9 reagents (Promega). After incubating at room temperature for 1 hour, luminescence was measured using TD 20/20 Luminometer (Turner Designs, Sunnyvale, Calif.). Blank values were subtracted and fold-increase in activity was calculated based on activity measured from untreated cells. Each sample was measured in triplicate."}, "[3]": {"system": "caspase 9", "experiment": "Caspase-Glo 9 assay in R182 cells", "format": "cell-based, Human", "conditions": "R182 ovarian cancer explants; dose response and duration of exposure (5 μg/ml, 0-25 hr)", "description": "FIG. 3. Comparative induction of caspase 9 in R182 ovarian cancer explants by Cpd 1 and dehydroequol using either dose response (A) or duration of exposure (B). Caspase 9 activity was assessed using the Caspase-Glo 9 assay.\nas §2"}, "[4]": {"system": "caspase 8", "experiment": "Caspase-Glo 8 assay in R182 cells", "format": "cell-based, Human", "conditions": "R182 ovarian cancer explants; dose response and duration of exposure (5 μg/ml, 0-25 hr)", "description": "FIG. 4. Comparative induction of caspase 8 in R182 ovarian cancer explants by Cpd 1 and dehydroequol using either dose response (A) or duration of exposure (B). Caspase 8 activity was assessed using the Caspase-Glo 8 assay.\nas §2"}, "[5]": {"system": "ovarian cancer cells", "experiment": "Cell viability in presence of pan caspase inhibitor ZVAD-FMK", "format": "cell-based, Human", "conditions": "ZVAD-FMK 0.5 μg/ml", "description": "FIG. 5. Comparative cell viability plots of dehydroequol (A) and Cpd 1 (B) treated cells in the presence and absence of the pan caspase inhibitor ZVAD-FMK (0.5 μg/ml).\nas §1"}, "[6]": {"system": "caspase 3", "experiment": "Caspase 3 activity in xenograft tumour sections", "format": "in vivo, SCID mice", "conditions": "tumour-bearing mice; not shown"}}}
{"smiles": "Oc1ccc(C2=Cc3ccc(O)cc3OC2)cc1", "note": "[Dehydroequol, reference compound]", "values": [{"measurement": "cell viability of ovarian cancer cells", "setting": "[1]", "result": "does not exhibit this pan activity"}, {"measurement": "caspase 3 activity", "setting": "[2]", "result": "activation of caspase 3 is time (5 μg/ml) and dose dependent"}, {"measurement": "caspase 9 activity", "setting": "[3]", "result": "activation of caspase 3 is time (5 μg/ml) and dose dependent"}, {"measurement": "caspase 8 activity", "setting": "[4]", "result": "activation of caspase 8 is time (5 μg/ml) and dose dependent"}, {"measurement": "cell death in the presence of pan caspase inhibitor ZVAD-FMK", "setting": "[5]", "result": "apoptosis was inhibited"}, {"measurement": "caspase 3 activity in tumour sections", "setting": "[6]", "result": "observed only in tumour sections taken from mice dosed with dehydroequol"}]}
